Experimental data taken from paper PMC6915869, “Immunosuppressive effects of a novel potassium channel toxin Ktx-Sp2 from Scorpiops Pocoki” (Cell & Bioscience, 2019).
Entries after “also recorded” stand apart in the source; their conditions may differ. Bridge positions count the residues as written; N and C are the ends. Peptide text beside a SMILES is read from it.

Tests used:
mKv1.1 = target: T1, mKv1.1 (Mus musculus, UniProt P16388); experiment: Whole-cell patch-clamp, exogenous Kv1.1 in HEK293T cells; format: cell-based; settings: exogenous channel
T1 construct: expressed in transfected cells; host or cells: HEK293T, vector pIRES2-EGFP (bicistronic, EGFP not fused)
Description: (§1) Mouse spinal columns were removed and placed in ice cold HBSS, then laminectomies were performed and bilateral DRG were dissected out. After removal of connective tissues, DRG were transferred to a 1 ml Ca^2+/Mg^2+-free HBSS containing 2 μl saturated NaHCO3, 0.35 mg L-cysteine and 20 U papain (Worthington, Lakewood, NJ, USA), and incubated at 37 °C for 10 min. The suspension of DRG was centrifuged, the supernatant was removed, 1 ml Ca^2+/Mg^2+-free HBSS containing 4 mg collagenase type II and 1.25 mg dispase type II (Worthington) was added and incubated at 37 °C for 10 min. After digestion, neurons were pelleted, suspended in neurobasal medium containing 2% B-27 supplement, 1% L-glutamine, 100 U/ml penicillin plus 100 μg/ml streptomycin, and 50 ng/ml nerve growth factor, plated on a 12 mm coverslip coated with poly-L-lysine (10 μg/ml) and cultured under a humidified atmosphere of 5% CO2/95% air at 37 °C for 18–24 h before use. Jurkat E6-1 T cells (ATCC TIB152) and HEK293T cells (ATCC ACS4500) were maintained in RPMI medium 1640 (Invitrogen, Carlsbad, CA, USA) and Dulbecco’s modified Eagle’s medium (DMEM) (Life Technologies,GrandIsland, NY, USA), supplemented with 10% fetal bovine serum (Life Technologies), 100 units/ml penicillin, 100 μg/ml streptomycin, respectively. Cells were cultured in a humidified incubator at 37 °C with 5% CO2. The cDNAs encoding mKv1.1, mKv1.2, mKv1.3, mNav1.4, mNav1.5 and mNav1.7 were subcloned into the XhoI/BamHI sites of a bicistronic vector, pIRES2-EGFP (Clontech, USA), then transiently transfected into HEK293-T cells using Lipofectamine 2000 (Invitrogen) for electrophysiological experiments.
Whole-cell patch-clamp recordings were performed using an EPC 9 amplifier (HEKA Elektronik, Lambrecht/Pfalz, Germany) at room temperature (22–24 °C). Pipettes pulled from borosilicate glass (BF 150-86-10; Sutter Instrument Company, Novato, CA, USA) had resistances of 2–4 MΩ when filled with the internal solution. […]

mNav1.4 = experiment: Whole-cell patch-clamp, exogenous Nav1.4 in HEK293T cells; format: cell-based; settings: 1 μM, +10 mV 100 ms pulse from -60 mV every 10 s
Description: as §1, with “The cDNAs encoding mKv1.1, mKv1.2, mKv1.3, mNav1.4, mNav1.5 and mNav1.7 were subcloned into the XhoI/BamHI sites of a bicistronic vector, pIRES2-EGFP (Clontech, USA), then transiently transfected into HEK293-T cells using Lipofectamine 2000 (Invitrogen) for electrophysiological experiments.” left out

mNav1.7 = experiment: Whole-cell patch-clamp, exogenous Nav1.7 in HEK293T cells; format: cell-based; settings: 1 μM, +10 mV 100 ms pulse from -60 mV every 10 s
Description: as §1, with “The cDNAs encoding mKv1.1, mKv1.2, mKv1.3, mNav1.4, mNav1.5 and mNav1.7 were subcloned into the XhoI/BamHI sites of a bicistronic vector, pIRES2-EGFP (Clontech, USA), then transiently transfected into HEK293-T cells using Lipofectamine 2000 (Invitrogen) for electrophysiological experiments.” left out

mNav1.5 = experiment: Whole-cell patch-clamp, exogenous Nav1.5 in HEK293T cells; format: cell-based; settings: 1 μM, +10 mV 100 ms pulse from -60 mV every 10 s
Description: as §1, with “The cDNAs encoding mKv1.1, mKv1.2, mKv1.3, mNav1.4, mNav1.5 and mNav1.7 were subcloned into the XhoI/BamHI sites of a bicistronic vector, pIRES2-EGFP (Clontech, USA), then transiently transfected into HEK293-T cells using Lipofectamine 2000 (Invitrogen) for electrophysiological experiments.” left out

[1] = test system: IL-2 secretion from Jurkat T cells; experiment: IL-2 secretion from ConA-activated Jurkat T cells (ELISA); format: cell-based, human; settings: ConA 10 μg/ml; for ConA-induced IL-2 secretion (in words): Ktx-Sp2 10 nM, 100 nM, 1 μM and 10 μM, 24 h, ELISA at 450 nm, n = 6, ***P < 0.0001
Description: IL-2 secretion from Jurkat T cells was measured using an ELISA kit (eBioscience, San Diego, CA, USA) following manufacturer’s instructions. Cells were centrifuged at 1500 rpm for 10 min, and the supernatants were collected to measure IL-2 concentrations. Reactions were performed in 96-well plates coated with the capture antibody and stopped with phosphoric acid (1 M). Absorbance was measured at 450 nm. Each experiment was repeated at least three times in duplicate.
The cytokine IL-2 is predominantly secreted from activated T cells and is critical in regulating the balance between immune tolerance and autoimmunity. The secretion of IL-2 is driven by a rise of [Ca^2+]i. Since Ktx-Sp2 potently suppresses Kv1.3 function and decreases Ca^2+ influx in Jurkat T cells we next asked whether Ktx-Sp2 could inhibit IL-2 secretion, which should result in functional immunosuppression. As a classical polyclonal stimulator acting through T-cell receptor complex (TCR)-CD3 complex, ConA has been used to induce T cell activation and stimulate IL-2 secretion, which is dependent on an increase of [Ca^2+]i. We thus used the ConA-stimulated IL-2 secretion in the growth media as readout.
Fig. 6 Ktx-Sp2 inhibits IL-2 secretion from activated Jurkat T cells. The concentrations of IL-2 in cell growth media were measured by ELISA. Jurkat T cells were activated by ConA (10 μg/ml) for 24 h. Ktx-Sp2 (10 nM, 100 nM, 1 μM and 10 μM) were added simultaneously with ConA. ***P < 0.0001, n = 6

[2] = target: T2, endogenous Kv1.3 expressed by human Jurkat T cells (Homo sapiens, UniProt P22001); experiment: Whole-cell patch-clamp, endogenous Kv1.3 in Jurkat T cells; format: cell-based
T2 construct: endogenous Kv1.3 expressed by human Jurkat T cells; host or cells: Jurkat E6-1 T cells
Description: as §1
Whole-cell patch-clamp recordings were performed using an EPC 9 amplifier (HEKA Elektronik, Lambrecht/Pfalz, Germany) at room temperature (22–24 °C). Pipettes pulled from borosilicate glass (BF 150-86-10; Sutter Instrument Company, Novato, CA, USA) had resistances of 2–4 MΩ when filled with the internal solution. The internal pipette solution for recording Kv currents contained: KCl 140 mM, MgCl2 1 mM, EGTA 1 mM, Na2ATP 3 mM, HEPES 10 mM (pH 7.3 with KOH); for recording Na currents contained: CsCl 100 mM, CsF 40 mM, MgCl2 2 mM, HEPES 10 mM, EGTA 10 mM, D-Glucose 10 mM, Na2ATP 3 mM (pH 7.3 with CsOH). The external solution for recording Kv currents contained: KCl 5 mM, NaCl 140 mM, HEPES 10 mM, CaCl2 2 mM, MgCl2 1 mM, D-Glucose 10 mM (pH 7.4 with NaOH); for recording Na currents contained: NaCl 132 mM, KCl 5.4 mM, CaCl2 1.8 mM, MgCl2 0.8 mM, HEPES 10 mM, D-Glucose 5 mM (pH 7.4 with NaOH). Kv currents were elicited by + 50 mV, 400 ms depolarizing pulse from the holding potential of − 60 mV every 20 s, and Na currents were elicited by + 10 mV, 100 ms depolarizing pulse from the holding potential of − 60 mV every 10 s. […]

T2 sequence (P22001 whole entry): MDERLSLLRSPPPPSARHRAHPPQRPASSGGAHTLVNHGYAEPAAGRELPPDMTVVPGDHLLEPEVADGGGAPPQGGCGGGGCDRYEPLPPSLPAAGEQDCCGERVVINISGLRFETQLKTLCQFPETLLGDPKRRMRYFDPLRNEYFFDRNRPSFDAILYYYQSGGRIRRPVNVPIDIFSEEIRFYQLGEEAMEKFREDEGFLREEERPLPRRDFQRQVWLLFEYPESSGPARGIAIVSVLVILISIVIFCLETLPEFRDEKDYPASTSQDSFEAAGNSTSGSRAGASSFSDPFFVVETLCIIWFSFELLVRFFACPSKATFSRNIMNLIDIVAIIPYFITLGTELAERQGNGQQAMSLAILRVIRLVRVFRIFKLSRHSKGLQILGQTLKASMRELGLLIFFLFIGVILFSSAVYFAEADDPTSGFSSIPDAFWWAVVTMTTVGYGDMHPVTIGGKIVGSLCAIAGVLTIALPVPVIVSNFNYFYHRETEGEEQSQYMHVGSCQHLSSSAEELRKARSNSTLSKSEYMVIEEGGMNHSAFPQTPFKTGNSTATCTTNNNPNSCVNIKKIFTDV
T1 sequence (P16388 whole entry, the tested form may be a part): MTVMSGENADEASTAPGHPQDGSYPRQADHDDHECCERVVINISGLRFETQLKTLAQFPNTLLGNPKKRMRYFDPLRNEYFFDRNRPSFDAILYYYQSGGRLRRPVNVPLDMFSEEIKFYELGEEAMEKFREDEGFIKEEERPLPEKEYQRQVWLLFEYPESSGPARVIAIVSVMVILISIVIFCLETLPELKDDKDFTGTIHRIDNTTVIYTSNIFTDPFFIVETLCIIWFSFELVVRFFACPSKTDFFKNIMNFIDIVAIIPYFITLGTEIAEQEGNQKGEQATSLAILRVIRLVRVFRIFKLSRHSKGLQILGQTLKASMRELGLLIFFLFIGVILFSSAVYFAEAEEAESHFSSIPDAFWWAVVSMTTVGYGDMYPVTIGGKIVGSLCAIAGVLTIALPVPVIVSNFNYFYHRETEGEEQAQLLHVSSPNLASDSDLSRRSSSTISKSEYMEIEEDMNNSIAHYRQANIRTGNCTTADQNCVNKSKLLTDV

Structure (SMILES): CSCC[C@@H]1NC(=O)[C@@H]2CSSC[C@H](NC(=O)[C@H](CCCCN)NC(=O)[C@H](C)NC(=O)CNC(=O)[C@H](Cc3c[nH]cn3)NC(=O)[C@H](CC(C)C)NC(=O)[C@@H]3CCCN3C(=O)[C@@H](N)CO)C(=O)N[C@@H](CO)C(=O)N[C@@H](CO)C(=O)N[C@@H](CO)C(=O)N[C@@H](CC(N)=O)C(=O)N[C@@H](CCC(N)=O)C(=O)N[C@H]3CSSC[C@H](NC(=O)[C@H](CCCNC(=N)N)NC(=O)CNC(=O)[C@H](CC(N)=O)NC1=O)C(=O)N[C@@H](CCCNC(=N)N)C(=O)N[C@H](C(=O)N[C@@H](Cc1ccc(O)cc1)C(=O)NCC(=O)O)CSSC[C@H](NC(=O)[C@@H]1CCCN1C(=O)[C@H](CCCNC(=N)N)NC(=O)[C@H]([C@@H](C)O)NC3=O)C(=O)N[C@@H](CCCNC(=N)N)C(=O)N[C@@H](Cc1ccc(O)cc1)C(=O)NCC(=O)NCC(=O)NCC(=O)N[C@@H]([C@@H](C)O)C(=O)N[C@@H](Cc1c[nH]cn1)C(=O)NCC(=O)N[C@@H](CCCCN)C(=O)N2 [Ktx-Sp2] (H-SPLHGAKCSSSNQCTRPCRYGGGTHGKCMNGRCRCYG-OH; disulfide 8-28, 14-33, 18-35 (inferred); N-terminus and C-terminus assumed)
- blocking of Kv1.1 (in words) (mKv1.1): effectively block
- effect on Nav1.4 (mNav1.4): almost had no effect
- effect on Nav1.7 (mNav1.7): almost had no effect
- effect on Nav1.5 (mNav1.5): almost had no effect
- activation of Jurkat T cells (in words) [1]: inhibit the activation of Jurkat T cells
- activation of Jurkat T cells (in words) ([1]; listed as Ktx-sp2): inhibiting the activation effect of ConA on Jurkat T cells
- ConA-induced IL-2 secretion (in words) [1]: reduce the release of inflammatory cytokines IL-2; also recorded: significantly reduced ConA-induced IL-2 secretion in a concentration-dependent manner
- ConA-induced IL-2 secretion (in words) ([1]; listed as Ktx-sp2): significantly reducing the release of inflammatory cytokine IL-2
- blocking of endogenous Kv1.3 in Jurkat T cells (in words) [2]: effectively block endogenous Kv1.3; also recorded: equivalent to the exogenous expression Kv1.3 on the HEK293T cell membrane
- reduction of Kv1.3 current ([2]; 30 nM, bath application, n = 5, +50 mV 400 ms pulse from -60 mV, almost zero cytosolic Ca^2+): about 50%
- IC50 ([2]; +50 mV 400 ms pulse from -60 mV, almost zero cytosolic Ca^2+, currents normalized to control, Hill equation, read-out: IC50 for Kv1.3 current in Jurkat T cells): 29.1 ± 1.12 nM
- reversibility of suppressive effect on Kv1.3 current after washout ([2]; bath application, washout): partially reversible after washout
